Results: the NIST ThermoML archive (doi:10.1016/j.jct.2012.08.010)

Experiment: xn = mol fraction of the nth substance listed
Conditions: 101 kPa, Liquid, Vibrating tube method

C=C[Si]1(C)O[Si](C)(C=C)O[Si](C)(C=C)O[Si](C)(C=C)O1 (stereo not given) [2,4,6,8-tetramethyl-2,4,6,8-tetravinylcycloterasiloxane] + CCc1ccccc1
mass density [kg/m3]
Conditions | 288.15 K | 298.15 K | 308.15 K | 318.15 K | 328.15 K
x1 = 0.0501 | 887.7 | 878.79 | 869.83 | 860.83 | 851.79
x1 = 0.1045 | 902.53 | 893.47 | 884.37 | 875.24 | 866.11
x1 = 0.1504 | 913.16 | 904 | 894.77 | 885.58 | 876.37
x1 = 0.2005 | 923.2 | 913.94 | 904.59 | 895.29 | 885.99
x1 = 0.2502 | 931.85 | 922.49 | 913.05 | 903.69 | 894.31
x1 = 0.3023 | 939.76 | 930.31 | 920.8 | 911.36 | 901.91
x1 = 0.3443 | 945.44 | 935.9 | 926.4 | 916.84 | 907.26
x1 = 0.3988 | 952.02 | 942.4 | 932.8 | 923.14 | 913.48
x1 = 0.4491 | 957.43 | 947.75 | 938.01 | 928.31 | 918.61
x1 = 0.499 | 962.24 | 952.49 | 942.68 | 932.88 | 923.08
x1 = 0.5497 | 966.67 | 956.86 | 946.99 | 937.14 | 927.3
x1 = 0.5979 | 970.47 | 960.6 | 950.7 | 940.8 | 930.9
x1 = 0.6498 | 974.27 | 964.35 | 954.39 | 944.46 | 934.51
x1 = 0.6946 | 977.23 | 967.27 | 957.29 | 947.3 | 937.32
x1 = 0.7486 | 980.54 | 970.52 | 960.48 | 950.44 | 940.38
x1 = 0.7994 | 983.4 | 973.34 | 963.28 | 953.21 | 943.13
x1 = 0.8489 | 985.97 | 975.86 | 965.78 | 955.67 | 945.56
x1 = 0.9467 | 990.55 | 980.33 | 970.21 | 960.03 | 949.84
x1 = 1 | 992.74 | 982.54 | 972.34 | 962.14 | 951.94

C=C[Si]1(C)O[Si](C)(C=C)O[Si](C)(C=C)O[Si](C)(C=C)O1 (stereo not given) [2,4,6,8-tetramethyl-2,4,6,8-tetravinylcycloterasiloxane] + Cc1ccc(C)cc1
mass density [kg/m3]
Conditions | 288.15 K | 298.15 K | 308.15 K | 318.15 K | 328.15 K
x1 = 0.0501 | 882.57 | 873.71 | 864.79 | 855.81 | 846.77
x1 = 0.1045 | 898.18 | 889.15 | 879.99 | 870.82 | 861.58
x1 = 0.1528 | 909.95 | 900.78 | 891.46 | 882.13 | 872.74
x1 = 0.2005 | 919.97 | 910.61 | 901.17 | 891.84 | 882.31
x1 = 0.25 | 929.05 | 919.68 | 910.08 | 900.53 | 890.92
x1 = 0.3017 | 937.34 | 927.86 | 918.16 | 908.52 | 898.83
x1 = 0.3444 | 943.41 | 933.87 | 924.09 | 914.37 | 904.6
x1 = 0.3985 | 950.18 | 940.53 | 930.74 | 920.97 | 911.16
x1 = 0.4489 | 955.85 | 946.14 | 936.28 | 926.45 | 916.57
x1 = 0.4989 | 960.92 | 951.15 | 941.23 | 931.34 | 921.41
x1 = 0.5495 | 965.55 | 955.72 | 945.76 | 935.82 | 925.84
x1 = 0.5985 | 969.61 | 959.72 | 949.73 | 939.75 | 929.74
x1 = 0.649 | 973.48 | 963.54 | 953.51 | 943.48 | 933.43
x1 = 0.6941 | 976.62 | 966.59 | 956.55 | 946.5 | 936.42
x1 = 0.7484 | 980.08 | 970.08 | 959.96 | 949.86 | 939.75
x1 = 0.7992 | 983.04 | 972.97 | 962.87 | 952.74 | 942.62
x1 = 0.8375 | 985.13 | 975.04 | 964.91 | 954.76 | 944.62
x1 = 0.9462 | 990.42 | 980.26 | 970.11 | 959.92 | 949.73
x1 = 1 | 992.74 | 982.54 | 972.34 | 962.14 | 951.94
